Where two headings read alike, the source gives them in different places. One block for each molecule: values may come before it. Where a SMILES comes first, the peptide text is derived from it. Bridges are numbered along the chain shown (N, C = ends). Triazole bridges read from a SMILES are 1,4-linked. Where no end group is shown, it is not given here. [ ]: non-standard residue; d: D form. The star is where a group is joined. Benzoyl(4-guanidino) = N=C(N)Nc1ccc(C(=O)*)cc1; Gua = N-terminal guanidino group, N=C(N)*; Pro(4S-NH2) = N[C@@H]1CN[C@H](C(=O)O)C1; Orn(N3) = [N-]=[N+]=NCCC[C@H](N)C(=O)O; Aha = [N-]=[N+]=NCC[C@H](N)C(=O)O; Cav = NC(N)=NOCC[C@H](N)C(=O)O; Hpra = C#CCC[C@H](N)C(=O)O; hCys = N[C@@H](CCS)C(=O)O; Orn = NCCC[C@H](N)C(=O)O; Pra = C#CC[C@H](N)C(=O)O
What was measured:
[1] = human plasma; details: 37 °C, up to 300 min
[2] = type: in vitro ADME; details: plasma
Protocol: Plasmas from 3 species (including commercially available human healthy donors) were adjusted to pH 7.4 if necessary. Incubations were performed at a concentration of 1 µM of the compound at 37 °C (in the presence of a final concentration of DMSO of 2.5% v/v. The incubations were stopped at 0, 15, 30, 60 and 120 min by methanol. Each time point was run in sextuplets. The sampling plates were then centrifuged (2500 rpm, 45 min, 4 °C) and the supernatants pooled. Samples were analyzed for parent compound by LC-MS/MS. The percentage of parent compound remaining at each time point relative to the 0 min sample is then calculated from LC-MS/MS peak area ratios. Then, the stability in plasma was evaluated by incubating human, rat or mouse plasma with the compound(s) as follows: the product (0.1 µM in TRIS buffer pH 7.4 0.1% BSA) was incubated with the plasma at 37 °C. The disappearance of the product was measured at 15, 45, 120, 240 and 300 min by mass spectrometry. Incubations were carried out in a robot Star (Hamilton France, Villebon-sur-Yvette, France). At each sampling time, 50 µL of the reaction medium was removed and diluted with 100 µL of acetonitrile. After centrifugation (20 min at + 4 °C, 4000 rpm), 75 µL of the supernatants was transferred into a 384 well injection plate. Ten microliters were injected onto UPLC coupled with a XEVO TQS mass spectrometer system (Waters, Milford, MA, USA). The unchanged product is quantified using a reference sample (0.1 µM) prepared during the incubation process. A second reference sample at 0.01 µM is prepared in the same conditions to verify the linearity of the detection method. The peak height (or area) is measured to calculate the half-life of the compound.

[3] = target: T1, human MCH-R1 (Homo sapiens, UniProt Q99705); experiment: MCH-induced cytosolic Ca2+ ion mobilization, antagonist effect; type: cell-based; details: antagonism of MCH-induced cytosolic Ca2+ mobilization; read-out: Ki (functionality, antagonism at MCH-R1)
T1 construct: expressed in transfected cells
T1 sequence (Q99705 whole entry): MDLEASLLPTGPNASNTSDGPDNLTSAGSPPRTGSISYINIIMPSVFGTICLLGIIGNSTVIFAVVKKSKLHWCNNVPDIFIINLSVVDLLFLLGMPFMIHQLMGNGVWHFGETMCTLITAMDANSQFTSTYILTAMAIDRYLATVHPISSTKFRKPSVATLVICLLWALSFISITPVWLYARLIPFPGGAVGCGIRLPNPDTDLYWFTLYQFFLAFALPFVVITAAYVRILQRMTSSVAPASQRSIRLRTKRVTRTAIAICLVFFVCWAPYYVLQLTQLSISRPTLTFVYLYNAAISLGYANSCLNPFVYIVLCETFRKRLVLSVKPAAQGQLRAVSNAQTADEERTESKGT
Protocol: The functional assay was run onto cells expressing the hMCH-R1 receptor, as described in Wang et al.. In brief, the cells are suspended in DMEM buffer (Invitrogen), then distributed in microplates at a density of 4.104 cells/well. The fluorescent probe (Fluo4 Direct, Invitrogen) mixed with probenecid in Hanks’ Balanced Salt solution (HBSS) (Invitrogen) complemented with 20 mM HEPES (Invitrogen) (pH 7.4) is then added into each well and equilibrated with the cells for 60 min at 37 °C, then 15 min at 22 °C. Then, the assay plates are positioned in a microplate reader (CellLux, PerkinElmer) which is used for the addition of the test compound, reference agonist or HBSS buffer (basal control), and the measurements of changes in fluorescence intensity, which varies proportionally to the free cytosolic Ca^2+ ion concentration. For stimulated control measurements, MCH at 300 nM is added in separate assay wells. The results are expressed as a percentage of the control response to 300 nM MCH. The standard reference agonist is MCH, which is tested in each experiment at several concentrations to generate a concentration-response curve from which its EC50 value is calculated. For the antagonist effect, the results are expressed as a percentage inhibition of the control response to 30 nM MCH, which was added to all tested wells and controls 5 min after the candidate products.

[4] = target: T1, human MCH-R1; experiment: Binding displacement of [125I]-[Phe13,Tyr19]-MCH at membranes expressing human MCH-R1; details: Table 1, S-S bridge pseudopeptides; 2 × 2 independent duplicates; read-out: Km
Protocol: Stable cell lines were obligatory for all receptor programs. We cloned the human receptor and established the cell line as previously described. In brief, HEK293 (HEK) cells were grown in Dulbecco’s Modified Eagle medium (DMEM) supplemented with 10% fetal calf serum, 2 mM glutamine, 100 IU/mL penicillin and […] streptomycin. They were seeded at 5 × 10^6 cells in T75 cm^2 culture flasks. One day later, they were transfected with […] of the pcDNA3.1 (Invitrogen, Groningen, The Netherlands) containing the human MCH-R1 using lipofectamine (Life Technologies, Cergy Pontoise, France), as previously described. One day later, cells were trypsinized, resuspended in a complete DMEM medium containing […] of geneticin and seeded at different dilutions in 96-well plates which were kept for 2 to 3 weeks in a humidified CO2 incubator. At the end of the selection period, isolated clones were picked up, amplified, and further characterized by cyclic AMP experiments. For each cell line, one positive clone was subcloned before being used for all of the cyclic AMP, [^35S]-GTPγS and receptor binding experiments necessary to characterize them. The stable HEK293 cell line expressing the human MCH-R1 was HEK-hMCH-R1.
Membrane preparations were classically made as previously described. In brief, the HEK-hMCH-R cell line was grown to confluency, harvested in PBS buffer containing 2 mM EDTA and centrifuged at 10,000× g for 5 min (4°C). The resulting pellet was suspended in 20 mM Hepes buffer (pH 7.5), containing 5 mM EGTA and homogenized using a Kinematica polytron. The homogenate was then centrifuged (95,000× g, 30 min, 4 °C) and the resulting pellet was suspended in 50 mM HEPES buffer (pH 7.5), containing 10 mM MgCl2 and 2 mM EGTA. Aliquots of membrane preparations were stored at −80 °C until use. Binding has been described in numerous publications and the test was based on Mac Donald et al.’s description. […] Nonspecific binding is determined in the presence of 0.1 μM MCH. […] The filters are dried and then counted for radioactivity in a scintillation counter (Topcount, Packard) using a scintillation cocktail (Microscint 0, Packard). The results are expressed as percentage inhibition of the control radioligand specific binding. The standard reference compound is MCH, which was tested in each experiment at 8 concentrations to obtain a competition curve from which its IC50 is calculated. The high level of assay robustness and reproducibility of each control monitored over several decades (internal data base, Eurofins) and included in every assay ensure results’ reliability even when performed only twice. […]

Molecule: Gua-Glu-Ethionine-Leu-Arg-Val-Arg-Pro-Orn-Trp
not cleaved [1]: not metabolized at all, 100% of the initial dose found at 300 (5 h)

Molecule: Gua-Glu-Met-Leu-Arg-Val-Arg-4-NH2-Pro-Orn-Trp
not cleaved [1]: not metabolized at all, 100% of the initial dose found at 300 (5 h)

Molecule: CSCC[C@@H]1NC(=O)[C@@H](NC(=O)c2ccc(NC(=N)N)cc2)CCC(=O)NCCC[C@@H](C(=O)N[C@@H](Cc2c[nH]c3ccccc23)C(=O)O)NC(=O)[C@@H]2CCCN2C(=O)[C@H](CCCNC(=N)N)NC(=O)[C@H](C(C)C)NC(=O)[C@H](CCCNC(=N)N)NC(=O)[C@H](CC(C)C)NC1=O [GPS12744] ({Benzoyl(4-guanidino)}-EMLRVRP[Orn]W-OH; lactam 1-8)
half-life ([2]; human): ≥ 5 h | half-life ([2]; mouse): 0.433 ± 0.05 h | half-life ([2]; rat): 2.38 ± 0.2 h

Molecule: CSCC[C@H](NC(=O)[C@H](CCC(=O)O)NC(=O)c1ccc(NC(=N)N)cc1)C(=O)N[C@@H](CC(C)C)C(=O)N[C@@H](CCCNC(=N)N)C(=O)N[C@H](C(=O)N[C@@H](CCCNC(=N)N)C(=O)N1CCC[C@H]1C(=O)N[C@@H](CCCN)C(=O)N[C@@H](Cc1c[nH]c2ccccc12)C(=O)O)C(C)C [GPS13669] ({Benzoyl(4-guanidino)}-EMLRVRP[Orn]W-OH)
Ki [3]: 300 nM

Molecule: CCSCC[C@@H]1NC(=O)[C@@H](NC(=O)c2ccc(NC(=N)N)cc2)CCC(=O)NCCC[C@@H](C(=O)N[C@@H](Cc2c[nH]c3ccccc23)C(=O)O)NC(=O)[C@@H]2CCCN2C(=O)[C@H](CCCNC(=N)N)NC(=O)[C@H](C(C)C)NC(=O)[C@H](CCCNC(=N)N)NC(=O)[C@H](CC(C)C)NC1=O [GPS13663] ({Benzoyl(4-guanidino)}-E[hCys](Et)LRVRP[Orn]W-OH; lactam 1-8)
half-life ([2]; human): ≥ 5 h | half-life ([2]; mouse): 0.317 ± 0.0167 h | half-life ([2]; rat): 1.57 ± 0.05 h

Molecule: GPS11373: S-S bridge: Gua-Cys-Met-Leu-Arg-Val-Arg-Pro-Cys-Trp (Gua-CMLRVRPCW; disulfide 1-8 (inferred))
binding affinity constant [4]: 100 nM

Molecule: CCSCC[C@@H]1NC(=O)[C@@H](NC(=O)c2ccc(NC(=N)N)cc2)Cc2cn(nn2)CC[C@@H](C(=O)N[C@@H](Cc2c[nH]c3ccccc23)C(=O)O)NC(=O)[C@@H]2CCCN2C(=O)[C@H](CCCNC(=N)N)NC(=O)[C@H](C(C)C)NC(=O)[C@H](CCCNC(=N)N)NC(=O)[C@H](CC(C)C)NC1=O [GPS13671] ({Benzoyl(4-guanidino)}-[Pra][hCys](Et)LRVRP[Aha]W-OH; triazole 1-8)
Ki [3]: 8 nM

Molecule: Gua-Glu-Met-Leu-Arg-Val-Arg-Pro-Orn-Trp
not cleaved [1]: not metabolized at all, 100% of the initial dose found at 300 (5 h)

Further lines, results first:

Ki [3]: 0.13 nM
Molecule: CSCC[C@@H]1NC(=O)[C@@H](NC(=O)c2ccc(NC(=N)N)cc2)CCC(=O)NCCC[C@@H](C(=O)N[C@@H](Cc2c[nH]c3ccccc23)C(=O)O)NC(=O)[C@@H]2CCCN2C(=O)[C@H](CCCNC(=N)N)NC(=O)[C@H](Cc2ccc(O)cc2)NC(=O)[C@H](C(C)C)NC(=O)[C@H](CCCNC(=N)N)NC(=O)[C@H](CC(C)C)NC1=O [GPS13695] ({Benzoyl(4-guanidino)}-EMLRVYRP[Orn]W-OH; lactam 1-9)

Ki [3]: 0.43 nM
Molecule: CSCC[C@@H]1NC(=O)[C@@H](NC(=O)c2ccc(NC(=N)N)cc2)CCCn2cc(nn2)C[C@@H](C(=O)N[C@@H](Cc2c[nH]c3ccccc23)C(=O)O)NC(=O)[C@@H]2CCCN2C(=O)[C@H](CCCNC(=N)N)NC(=O)[C@H](C(C)C)NC(=O)[C@H](CCCNC(=N)N)NC(=O)[C@H](CC(C)C)NC1=O [GPS14519] ({Benzoyl(4-guanidino)}-[Orn(N3)]MLRVRP[Pra]W-OH; triazole 1-8)

Ki [3]: 0.022 nM
Molecule: CSCC[C@@H]1NC(=O)[C@@H](NC(=O)c2ccc(NC(=N)N)cc2)CCn2cc(nn2)CC[C@@H](C(=O)N[C@@H](Cc2c[nH]c3ccccc23)C(=O)O)NC(=O)[C@@H]2CCCN2C(=O)[C@H](CCCNC(=N)N)NC(=O)[C@H](C(C)C)NC(=O)[C@H](CCCNC(=N)N)NC(=O)[C@H](CC(C)C)NC1=O [GPS14517] ({Benzoyl(4-guanidino)}-[Aha]MLRVRP[Hpra]W-OH; triazole 1-8)

half-life ([2]; human): ≥ 5 h | half-life ([2]; mouse): 0.433 ± 0.0167 h | half-life ([2]; rat): 2.25 ± 0.15 h
Molecule: CSCC[C@@H]1NC(=O)[C@@H](NC(=O)c2ccc(NC(=N)N)cc2)CCC(=O)NCCC[C@@H](C(=O)N[C@@H](Cc2c[nH]c3ccccc23)C(=O)O)NC(=O)[C@@H]2C[C@H](N)CN2C(=O)[C@H](CCCNC(=N)N)NC(=O)[C@H](C(C)C)NC(=O)[C@H](CCCNC(=N)N)NC(=O)[C@H](CC(C)C)NC1=O [GPS13684] ({Benzoyl(4-guanidino)}-EMLRVR[Pro(4S-NH2)][Orn]W-OH; lactam 1-8)

Ki [3]: 0.027 nM
Molecule: CSCC[C@@H]1NC(=O)[C@@H](NC(=O)c2ccc(NC(=N)N)cc2)Cc2cn(nn2)CCC[C@@H](C(=O)N[C@@H](Cc2c[nH]c3ccccc23)C(=O)O)NC(=O)[C@@H]2CCCN2C(=O)[C@H](CCCNC(=N)N)NC(=O)[C@H](C(C)C)NC(=O)[C@H](CCCNC(=N)N)NC(=O)[C@H](CC(C)C)NC1=O [GPS14518] ({Benzoyl(4-guanidino)}-[Pra]MLRVRP[Orn(N3)]W-OH; triazole 1-8)

Ki [3]: 0.15 nM
Molecule: CSCC[C@@H]1NC(=O)[C@@H](NC(=O)c2ccc(NC(=N)N)cc2)CCC(=O)NCCC[C@@H](C(=O)N[C@@H](Cc2c[nH]c3ccccc23)C(=O)O)NC(=O)[C@@H]2CCCN2C(=O)[C@H](CCON=C(N)N)NC(=O)[C@H](C(C)C)NC(=O)[C@H](CCCNC(=N)N)NC(=O)[C@H](CC(C)C)NC1=O [GPS13683] ({Benzoyl(4-guanidino)}-EMLRV[Cav]P[Orn]W-OH; lactam 1-8)
